According to ChEMBL document CHEMBL1667742, “Angiotensin II receptor type 1 (AT1) selective nonpeptidic antagonists--a perspective” (Bioorg Med Chem, 2010):
Where a chain is given by its changes, count along the chain named. Blank lines part the entries; values can stand above or below the compound they belong to.

Columns and labels:
Rattus norvegicus [1] = assay: Antihypertensive activity in iv dosed renal artery ligated rat model assessed as reduction of means arterial blood pressure by 30 mm Hg; assay type: functional
[2] = (§1) Displacement of radiolabeled angiotensin2 from angiotensin AT1 receptor in rat adrenal cortex membranes; assay type: cell membranes, Membrane
Rattus norvegicus [3] = assay: Antihypertensive activity in iv dosed anesthetized ganglionic blocked rat model assessed as reduction of angiotensin 2-induced response; assay type: functional, organism-based
[4] = Displacement of [125I]-angiotensin 2 from angiotensin AT1 receptor in rat liver membranes; assay type: cell membranes, Membrane
[5] = biological target: T1, Type-1 angiotensin II receptor (Homo sapiens, UniProt P30556); assay: Displacement of [3H]-angiotensin 2 from angiotensin AT1 receptor
T1 sequence (P30556 whole entry): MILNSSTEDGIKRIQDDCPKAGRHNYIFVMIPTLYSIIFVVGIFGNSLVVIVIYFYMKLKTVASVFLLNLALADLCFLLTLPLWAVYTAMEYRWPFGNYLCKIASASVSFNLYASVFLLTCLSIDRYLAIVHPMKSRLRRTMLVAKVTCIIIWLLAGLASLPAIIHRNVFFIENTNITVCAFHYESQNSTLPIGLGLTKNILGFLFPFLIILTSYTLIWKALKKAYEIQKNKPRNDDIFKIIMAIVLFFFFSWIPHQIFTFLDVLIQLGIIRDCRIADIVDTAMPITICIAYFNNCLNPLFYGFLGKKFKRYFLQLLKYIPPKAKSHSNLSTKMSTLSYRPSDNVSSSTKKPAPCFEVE

Rattus norvegicus [6] = assay: Cardiotoxicity in left renal artery-ligated hypertensive rat model assessed as reduction of heart rate at 1 to 10 mg/kg, po for 6 days; assay type: toxicity, organism-based; set-up: dose 1-10 mg/kg, route oral; scale not given: the % may be the effect or the level left; conditions: in vivo, 144 h
Rattus norvegicus [7] = assay: Cardiotoxicity in left renal artery-ligated hypertensive rat model assessed as reduction of heart rate at 0.3 to 3 mg/kg, administered intra-arterially for 6 days; assay type: toxicity, organism-based; set-up: dose 0.3-3 mg/kg; scale not given: the % may be the effect or the level left; conditions: in vivo, other, 144 h
[8] = Binding affinity to angiotensin AT1 receptor in rat lung membranes; assay type: cell membranes, Membrane
[9] = Binding affinity to angiotensin AT1 receptor in rat liver membranes; assay type: cell membranes, Membrane
Rattus norvegicus [10] = assay: Inhibition of angiotensin 2-induced response in intraduodenally dosed pithed normotensive rat; assay type: functional; conditions: Rattus norvegicus, intraduodenal
Rattus norvegicus [11] = assay: Inhibition of angiotensin 2-induced response in iv dosed pithed normotensive rat; assay type: functional
[12] = biological target: T2, Type-1 angiotensin II receptor (Homo sapiens) (UniProt P30556); assay: Ratio of compound IC50 to losartan IC50 for angiotensin AT1 receptor
T2 sequence (whole entry): T1 sequence (P30556 whole entry)

[13] = biological target: T3, Type-1 angiotensin II receptor (Cavia porcellus) (UniProt Q9WV26); assay: Antagonist activity at angiotensin AT1 receptor in guinea pig aorta assessed as reduction of angiotensin 2-induced contractile response; assay type: functional, tissue-based
T3 sequence (whole entry): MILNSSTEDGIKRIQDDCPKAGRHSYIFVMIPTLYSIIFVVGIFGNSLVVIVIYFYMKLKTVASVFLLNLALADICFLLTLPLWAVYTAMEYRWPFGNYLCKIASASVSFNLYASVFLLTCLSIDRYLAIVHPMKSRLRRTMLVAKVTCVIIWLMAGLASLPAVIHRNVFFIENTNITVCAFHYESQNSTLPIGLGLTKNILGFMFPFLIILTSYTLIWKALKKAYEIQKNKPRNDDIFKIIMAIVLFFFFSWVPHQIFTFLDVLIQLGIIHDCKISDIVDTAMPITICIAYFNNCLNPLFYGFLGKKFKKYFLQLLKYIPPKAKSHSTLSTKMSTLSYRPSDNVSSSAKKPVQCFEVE

[14] = biological target: T4, Type-1 angiotensin II receptor (Bos taurus, UniProt P25104); assay: Displacement of radiolabeled angiotensin 2 from angiotensin AT1 receptor in bovine adrenal cortex membranes; assay type: cell membranes, Membrane
T4 sequence (P25104 whole entry): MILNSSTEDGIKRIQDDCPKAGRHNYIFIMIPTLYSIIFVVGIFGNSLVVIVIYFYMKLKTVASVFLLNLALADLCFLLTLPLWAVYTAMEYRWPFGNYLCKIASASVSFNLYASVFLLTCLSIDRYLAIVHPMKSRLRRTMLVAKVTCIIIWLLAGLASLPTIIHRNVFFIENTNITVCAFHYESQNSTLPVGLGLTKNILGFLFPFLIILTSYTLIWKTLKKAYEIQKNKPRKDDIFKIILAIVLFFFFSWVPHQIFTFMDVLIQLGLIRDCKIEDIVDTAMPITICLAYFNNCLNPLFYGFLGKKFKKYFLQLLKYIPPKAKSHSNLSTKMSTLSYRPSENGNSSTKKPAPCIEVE

Rattus norvegicus [15] = organism: Rattus norvegicus; assay: as §1; assay type: cell membranes; conditions: Membrane, concentration not given here
[16] = biological target: T5, Type-1 angiotensin II receptor (Cavia porcellus, UniProt Q9WV26); assay: Binding affinity to angiotensin AT1 receptor in guinea pig adrenal cortex membranes; assay type: cell membranes, Membrane
T5 sequence (Q9WV26 whole entry): T3 sequence (whole entry)

Rattus norvegicus [17] = assay: Antihypertensive activity in iv dosed conscious rat; assay type: functional
[18] = Antagonist activity at angiotensin AT1 receptor in rat uterine membranes; assay type: functional, cell membranes
[19] = biological target: T6, Type-1 angiotensin II receptor (Oryctolagus cuniculus, UniProt P34976); assay: Antagonist activity at angiotensin AT1 receptor in rabbit aorta assessed as reduction of angiotensin 2-induced contractile response; assay type: functional, tissue-based; conditions: read-out: pA2 (converted)
T6 sequence (P34976 whole entry): T1 sequence (P30556 whole entry) with I2M, V49A, I254V, I270V, R272H, R311K, T349S, A353V

Rattus norvegicus [20] = assay: Antihypertensive activity in iv dosed salt depleted SHR rat model assessed as reduction of angiotensin 2-induced response; assay type: functional
Rattus norvegicus [21] = assay: Antihypertensive activity in iv dosed salt depleted SHR rat model assessed as reduction of angiotensin 2-induced mean arterial pressure at […]; assay type: functional, Artery; set-up: scale not given: the % may be the effect or the level left
[22] = Displacement of [125I]-Sar1Ile8-angiotensin 2 from angiotensin AT1 receptor in rat adrenal cortical membranes; assay type: cell membranes, Membrane
Rattus norvegicus [23] = assay: Inhibition of angiotensin 2-induced response in iv dosed conscious Sprague-Dawley rat; assay type: functional
[24] = Displacement of [125I]-Sar1Ile8-angiotensin 2 from angiotensin AT1 receptor in rat aortic smooth muscle cells
Rattus norvegicus [25] = assay: Antihypertensive activity in iv dosed renal hypertensive rat model assessed as reduction of blood pressure; assay type: functional
Rattus norvegicus [26] = assay: Antihypertensive activity in po dosed renal hypertensive rat model assessed as reduction of blood pressure; assay type: functional
Rattus norvegicus [27] = assay: Antihypertensive activity in conscious normotensive rat at 0.1 mg/kg after 6 hrs; assay type: functional
Rattus norvegicus [28] = assay: Antihypertensive activity in conscious normotensive rat after 24 hrs; assay type: functional
Rattus norvegicus [29] = assay: Antihypertensive activity in po dosed conscious rat; assay type: functional; conditions: read-out: ED50

IC50 [2]: 0.37 nM
Compound: CCCCc1nc(Cl)c(C(=O)O)n1Cc1ccc(-c2ccccc2-c2nn[nH]n2)cc1 [CARBOXYLIC ACID METABOLITE]
ED30 (Rattus norvegicus [1]): 0.038 mg/kg

IC50 (Rattus norvegicus [3]): 6.2 mg/kg
IC50 [4]: 0.8 nM
Compound: CCCc1nc(-n2cccc2C(=O)C(F)(F)F)c(C(=O)O)n1Cc1ccc(-c2ccccc2-c2nn[nH]n2)cc1

Ki [5]: 2 nM
Compound: CCCCc1nc(Cl)c(C(=O)O)n1Cc1ccc2oc(-c3ccccc3-c3nn[nH]n3)c(Br)c2c1 [ZOLASARTAN]
Activity (Rattus norvegicus [6]): < 15%
Activity (Rattus norvegicus [7]): < 15%

Ki [8]: 3.7 nM
Compound: CCCc1nc2c(C)cc(-c3nc4ccccc4n3C)cc2n1Cc1ccc(-c2ccccc2C(=O)O)cc1

IC50 [9]: 1000 nM
Compound: CCc1nc2c(C)cc(C)nc2n1Cc1ccc(-c2ccccc2S(=O)(=O)NC(=O)NCC2CC2)cc1
ED50 (Rattus norvegicus [10]): 0.012 mg/kg
ED50 (Rattus norvegicus [11]): 0.014 µmol/kg

IC50 [9]: 1.3 nM
Ratio IC50 [12]: 10
Compound: CCCCC1=NC2(CCCC2)C(=O)N1Cc1ccc(-c2ccccc2-c2nnn[nH]2)cc1 [IRBESARTAN]

pD2 [13]: 9.9
IC50 [14]: 7.7 nM
Compound: CCCc1nc(C(C)(C)O)c(C(=O)O)n1Cc1ccc(-c2ccccc2-c2nnn[nH]2)cc1 [OLMESARTAN]

inhibition (Rattus norvegicus [15]): 60%
Compound: CCCc1nc(C)n(CCO)c(=O)c1Cc1ccc(-c2ccccc2-c2nnn[nH]2)cc1

IC50 [16]: 24 nM
Compound: CCc1cc(Oc2ccc(-c3ccccc3-c3nnn[nH]3)cc2)c2ncccc2n1
ED50 (Rattus norvegicus [17]): 0.86 mg/kg

IC50 [18]: 5.1 nM
Kb [19]: 1.38 nM
Compound: CCCCc1nn(CCCC)c(=O)n1Cc1ccc(-c2ccccc2-c2nn[nH]n2)cc1

Ki [22]: 18.4 nM
Compound: CCCCc1nc(Cl)c(C(=O)[O-])n1Cc1cccc2c1ccn2-c1ccccc1-c1nn[n-]n1.[Li+].[Li+]
ED50 (Rattus norvegicus [20]): 0.03 µmol/kg
Activity (Rattus norvegicus [21]): 39%
ED50 (Rattus norvegicus [23]): 0.22 µmol/kg
Ki [24]: 7.6 nM

Compound: CCCc1nc(CN2CCN(c3ccccn3)CC2)c(C(=O)O)n1Cc1ccc(-c2ccccc2-c2nn[nH]n2)cc1
ED50 (Rattus norvegicus [25]): 0.18 mg/kg
ED50 (Rattus norvegicus [26]): 1.65 mg/kg

Compound: CCCCc1nc(-c2ccccc2Cl)c(C(=O)O)n1Cc1ccc(-c2ccccc2-c2nn[nH]n2)cc1
Activity (Rattus norvegicus [27]): 88%

Compound: CCCc1nn(Cc2ccccc2)c(C(=O)O)c1Cc1ccc(-c2ccccc2-c2nn[nH]n2)cc1
Activity (Rattus norvegicus [28]): 90%

Compound: CCCCc1nc2ccc(NC(=O)N(C)C(C)C)cc2c(=O)n1Cc1ccc(-c2ccccc2-c2nn[nH]n2)cc1
ED50 (Rattus norvegicus [29]): 0.68 mg/kg
ED50 (Rattus norvegicus [17]): 0.25 mg/kg
